Results taken from ChEMBL document CHEMBL2331534, “Design, synthesis and biological evaluation of novel hybrid compounds of imidazole scaffold-based 2-benzylbenzofuran as potent anticancer agents” (Eur J Med Chem, 2013).

Experiments:
[1] = test system: SMMC-7721; assay: Cytotoxicity against human SMMC7721 cells assessed as growth inhibition after 48 hrs by MTT assay; format: functional, cell-based; conditions: SMMC-7721, 48 h
[2] = test system: MCF7; assay: Cytotoxicity against human MCF7 cells assessed as growth inhibition after 48 hrs by MTT assay; format: functional, cell-based; conditions: MCF7, 48 h
[3] = test system: SW480; assay: Cytotoxicity against human SW480 cells assessed as growth inhibition after 48 hrs by MTT assay; format: functional, cell-based; conditions: SW480, 48 h
[4] = test system: HL-60; assay: Cytotoxicity against human HL60 cells assessed as growth inhibition after 48 hrs by MTT assay; format: functional, cell-based; conditions: HL-60, 48 h
[5] = test system: A549; assay: Cytotoxicity against human A549 cells assessed as growth inhibition after 48 hrs by MTT assay; format: functional, cell-based; conditions: A549, 48 h
[6] = test system: SMMC-7721; assay: Ratio of compound IC50 to DDP IC50 for growth inhibition of human SMMC7721 cells; format: functional
[7] = test system: MCF7; assay: Ratio of compound IC50 to DDP IC50 for growth inhibition of human MCF7 cells; format: functional

| SMILES | IC50 [1] [µM] | IC50 [2] [µM] | IC50 [3] [µM] | IC50 [4] [µM] | IC50 [5] [µM] | Ratio IC50 [6] | Ratio IC50 [7] |
| --- | --- | --- | --- | --- | --- | --- | --- |
| O=C(C[n+]1ccn(C(c2ccccc2)c2cc3ccccc3o2)c1)c1ccc2ccccc2c1 (configuration not stated) | 3.47 | 3.12 | 14.2 | 1.93 | 7.77 | – | – |
| CCc1n(C(c2ccccc2)c2cc3ccccc3o2)cc[n+]1CC(=O)c1ccc(OC)cc1 (configuration not stated) | 7.07 | 9.5 | 17.1 | 2.17 | 5.43 | – | – |
| Cc1n(C(c2ccccc2)c2cc3ccccc3o2)cc[n+]1CC(=O)c1ccccc1 (configuration not stated) | 14.8 | 10.2 | > 40 | 3.17 | 18.8 | – | – |
| C=CC[n+]1ccn(C(c2ccccc2)c2cc3ccccc3o2)c1C (configuration not stated) | > 40 | > 40 | > 40 | > 40 | > 40 | – | – |
| O=C(C[n+]1ccn(C(c2ccccc2)c2cc3ccccc3o2)c1)c1ccc(O)cc1 (configuration not stated) | > 40 | > 40 | > 40 | > 40 | > 40 | – | – |
| CCCC[n+]1cn(C(c2ccccc2)c2cc3ccccc3o2)c2ccccc21 (configuration not stated) | 7.03 | 15.4 | 29.3 | 2.87 | 12.3 | – | – |
| CCc1n(C(c2ccccc2)c2cc3ccccc3o2)cc[n+]1CC(=O)c1ccc(F)cc1 (configuration not stated) | 10.9 | 13.8 | > 40 | 2.38 | 7.36 | – | – |
| O=C(C[n+]1ccn(C(c2ccccc2)c2cc3ccccc3o2)c1)c1ccccc1 (configuration not stated) | > 40 | > 40 | > 40 | > 40 | > 40 | – | – |
| Cc1nccn1C(c1ccccc1)c1cc2ccccc2o1 (configuration not stated) | > 40 | > 40 | > 40 | > 40 | > 40 | – | – |
| C=CC[n+]1cn(C(c2ccccc2)c2cc3ccccc3o2)c2ccccc21 (configuration not stated) | > 40 | > 40 | > 40 | > 40 | > 40 | – | – |
| C=CC[n+]1ccn(C(c2ccccc2)c2cc3ccccc3o2)c1CC (configuration not stated) | > 40 | > 40 | > 40 | > 40 | > 40 | – | – |
| CS(=O)(=O)OC(c1ccccc1)c1cc2ccccc2o1 (configuration not stated) | > 40 | > 40 | > 40 | > 40 | > 40 | – | – |
| CCCC[n+]1ccn(C(c2ccccc2)c2cc3ccccc3o2)c1C (configuration not stated) | > 40 | > 40 | > 40 | > 40 | > 40 | – | – |
| CCCC[n+]1ccn(C(c2ccccc2)c2cc3ccccc3o2)c1CC (configuration not stated) | > 40 | > 40 | > 40 | > 40 | > 40 | – | – |
| CCc1n(C(c2ccccc2)c2cc3ccccc3o2)cc[n+]1CC(=O)c1ccc(Br)cc1 (configuration not stated) | 6.14 | 9.5 | 15.5 | 2.94 | 14.1 | – | – |
| O=[N+]([O-])c1ccc(C[n+]2ccn(C(c3ccccc3)c3cc4ccccc4o3)c2)cc1 (configuration not stated) | > 40 | > 40 | > 40 | > 40 | > 40 | – | – |
| Cc1n(C(c2ccccc2)c2cc3ccccc3o2)cc[n+]1CC(=O)c1ccc(Br)cc1 (configuration not stated) | 11.1 | 15.2 | 14.5 | 3.3 | 26.1 | – | – |
| CCc1nccn1C(c1ccccc1)c1cc2ccccc2o1 (configuration not stated) | > 40 | > 40 | > 40 | > 40 | > 40 | – | – |
| Cc1n(C(c2ccccc2)c2cc3ccccc3o2)cc[n+]1CC(=O)c1ccc(O)cc1 (configuration not stated) | > 40 | > 40 | > 40 | > 40 | > 40 | – | – |
| Cc1n(C(c2ccccc2)c2cc3ccccc3o2)cc[n+]1CC(=O)c1ccc(F)cc1 (configuration not stated) | 14.5 | 10.7 | 12.7 | 4.7 | 21.7 | – | – |
| c1ccc(C(c2cc3ccccc3o2)n2cnc3ccccc32)cc1 (configuration not stated) | > 40 | > 40 | > 40 | > 40 | > 40 | – | – |
| O=C(C[n+]1cn(C(c2ccccc2)c2cc3ccccc3o2)c2ccccc21)c1ccc2ccccc2c1.[Br-] (configuration not stated) | 2.35 | 3.13 | 3.18 | 1.12 | 3.43 | 6.3 | – |

| SMILES | IC50 [1] [µM] | IC50 [2] [µM] | IC50 [3] [µM] | IC50 [4] [µM] | IC50 [5] [µM] | Ratio IC50 [6] | Ratio IC50 [7] |
| --- | --- | --- | --- | --- | --- | --- | --- |
| c1ccc(C(c2cc3ccccc3o2)n2ccnc2)cc1 (configuration not stated) | > 40 | > 40 | > 40 | > 40 | > 40 | – | – |
| O=C(C[n+]1ccn(C(c2ccccc2)c2cc3ccccc3o2)c1)c1ccc(F)cc1 (configuration not stated) | > 40 | > 40 | > 40 | > 40 | > 40 | – | – |
| c1ccc(C[n+]2ccn(C(c3ccccc3)c3cc4ccccc4o3)c2)cc1 (configuration not stated) | > 40 | > 40 | > 40 | > 40 | > 40 | – | – |
| Cc1n(C(c2ccccc2)c2cc3ccccc3o2)cc[n+]1Cc1ccccc1 (configuration not stated) | > 40 | > 40 | > 40 | > 40 | > 40 | – | – |
| O=[N+]([O-])c1ccc(C[n+]2cn(C(c3ccccc3)c3cc4ccccc4o3)c3ccccc32)cc1 (configuration not stated) | 11.5 | 16.4 | 14 | 11 | > 40 | – | – |
| O=C(C[n+]1cn(C(c2ccccc2)c2cc3ccccc3o2)c2ccccc21)c1ccc(Br)cc1 (configuration not stated) | 3.99 | 3.35 | 3.75 | 2.68 | 4.76 | – | – |
| CCCC[n+]1ccn(C(c2ccccc2)c2cc3ccccc3o2)c1 (configuration not stated) | > 40 | > 40 | > 40 | > 40 | > 40 | – | – |
| CCc1n(C(c2ccccc2)c2cc3ccccc3o2)cc[n+]1CC(=O)c1ccc(O)cc1 (configuration not stated) | > 40 | > 40 | > 40 | > 40 | > 40 | – | – |
| COc1ccc(C(=O)C[n+]2ccn(C(c3ccccc3)c3cc4ccccc4o3)c2C)cc1 (configuration not stated) | 5.29 | 9.84 | 14.4 | 1.65 | 8 | – | – |
| CCc1n(C(c2ccccc2)c2cc3ccccc3o2)cc[n+]1Cc1ccccc1 (configuration not stated) | 7.14 | 5.24 | 3.75 | 2.06 | 6.52 | – | – |
| O=C(C[n+]1cn(C(c2ccccc2)c2cc3ccccc3o2)c2ccccc21)c1ccccc1 (configuration not stated) | 5.34 | 9.59 | 15.5 | 2.69 | 14.4 | – | – |
| CCc1n(C(c2ccccc2)c2cc3ccccc3o2)cc[n+]1CC(=O)c1ccccc1 (configuration not stated) | 10.6 | 14 | 19.1 | 2.64 | 13.7 | – | – |
| CCc1n(C(c2ccccc2)c2cc3ccccc3o2)cc[n+]1CC(=O)c1ccc2ccccc2c1 (configuration not stated) | 4.48 | 4.2 | 16.4 | 1.86 | 3.23 | – | – |
| O=C(C[n+]1ccn(C(c2ccccc2)c2cc3ccccc3o2)c1)c1ccc(Br)cc1 (configuration not stated) | 5.5 | 12 | 15.5 | 2.64 | 15.5 | – | – |
| C=CC[n+]1ccn(C(c2ccccc2)c2cc3ccccc3o2)c1 (configuration not stated) | > 40 | > 40 | > 40 | > 40 | > 40 | – | – |
| COc1ccc(C(=O)C[n+]2ccn(C(c3ccccc3)c3cc4ccccc4o3)c2)cc1 (configuration not stated) | 8.47 | 16.1 | 15.4 | 2.99 | 14.6 | – | – |
| Cc1n(C(c2ccccc2)c2cc3ccccc3o2)cc[n+]1CC(=O)c1ccc2ccccc2c1 (configuration not stated) | 4.29 | 2.24 | 4.48 | 1.85 | 8.57 | – | – |
| c1ccc(C[n+]2cn(C(c3ccccc3)c3cc4ccccc4o3)c3ccccc32)cc1 (configuration not stated) | 3.63 | 9.16 | 6.31 | 1.05 | 6.92 | – | – |
| O=C(C[n+]1cn(C(c2ccccc2)c2cc3ccccc3o2)c2ccccc21)c1ccc(O)cc1 (configuration not stated) | > 40 | > 40 | > 40 | > 40 | > 40 | – | – |
| O=C(C[n+]1cn(C(c2ccccc2)c2cc3ccccc3o2)c2ccccc21)c1ccc(F)cc1 (configuration not stated) | 3.98 | 12 | 13.6 | 2.1 | 9.15 | – | – |
| COc1ccc(C(=O)C[n+]2cn(C(c3ccccc3)c3cc4ccccc4o3)c3ccccc32)cc1.[Br-] (configuration not stated) | 3.09 | 2.29 | 3.55 | 1.02 | 3.57 | – | 4.6 |
